Consider one molecule from US20190169562A1, “SCREENING OF IMMUNO-MODULATORY THERAPIES” (zPredicta, Inc., priority 2016, published 2019).

SMILES strings stand for the structures.

The assay relates to malignant plasma cells. Briefly: bone marrow aspirates from multiple myeloma patients cultured in r-Bone and treated with pomalidomide. The note with it: patient bone marrow (n=10) in r-Bone, FIG. 4. In kind it is cell-based, human. The procedure: This example tested bone marrow aspirated from patients with multiple myeloma (n=10) were cultured in r-Bone system and treated with pomalidomide.

For the molecule `Nc1cccc2c1C(=O)N(C1CCC(=O)NC1=O)C2=O` (stereo not shown) [pomalidomide, Pomalidomide], the “elimination of malignant plasma cells” value was “eliminated malignant plasma cells in a dose dependent manner”.
